The conditions of series [1]: control or reference compound, 5 μM; cited from earlier work.
Series [2] has as its system anti-TNP antibody production. The series is described as follows: TNP-Ficoll T-cell independent B-cell activation assay. The format is in vivo, mouse. As to conditions: mice immunized with TNP-Ficoll; 70 mg/kg GDC0941; 30, 60, 120 mg/kg Compound A; 7 days. How it is done:
To test the effects of the compounds of the present invention in suppressing T cell independent antibody production, the TNP-Ficoll B-cell activation assay is used as described herein. Compounds of the present invention are dissolved in an appropriate vehicle (e.g. 5% 1-methyl-2-pyrrolidinone, 85% polyethylene glycol 400, 10% Solutor). Compounds are administered orally approximately 1 hr before TNP-Ficoll treatment to 4-10 week old mice. To study the effects of the compounds on B-cell activation, one set of mice are grouped according to the following table:
Four animals in group 1, and eight animals in groups 2 to 7 are euthanized in CO2 2 hours after the last compound administration on day 7. […]
Serum samples are analyzed for anti-TNP antibody titers by ELISA as described herein. […] HRP substrate (200 μl ABTS solution+30% H2O2+10 ml citrate buffer) is added to each well at 100 μl/well, incubated 2-20 minutes in the dark and the amount of anti-TNP IgG3 is determined spectrophotometrically at 405 nm. Similarly, anti-TNP IgM and total anti-TNP Ab are determined using anti-mouse IgM-HRP and anti-mouse Ig-HRP respectively.
Antibody production was measured using ELISA and plotted as as a percentage of control group that were treated with vehicle.

The subject of a further series is MDA-MB-361 tumors. The series is described as follows: Xenogenic mouse model of breast cancer (MDA-MB-361). Particulars: 70 mg/kg Pan-PI3K inhibitor, 60 mg/kg Compound A. In kind it is in vivo.
Another series deals with marginal zone B cells. The series is described as follows: Marginal zone B cells in mouse spleen (FACS). In kind it is in vivo. Particulars: 70 mg/kg Pan-PI3K inhibitor, 60 mg/kg Compound A; spleens harvested 2 hrs after last dose.
For series [3] the following is noted: PBS pH 7.4, 37° C., 24 hours, 5 μM reference compound; cited from earlier work.
For series [4], the system named is PI3K/Akt/mTor signaling in blood cells. Kind of series: Kinase signaling in blood (phosflow). In kind it is cell-based. As to conditions: anti-CD3 stimulated splenocytes or PBMC. How it is done: PI3K/Akt/mTor signaling is measured in blood cells using the phosflow method (Methods Enzymol. 2007; 434:131-54). The advantage of this method is that it is by nature a single cell assay so that cellular heterogeneity can be detected rather than population averages. This allows concurrent dinstinction of signaling states in different populations defined by other markers. Phosflow is also highly quantitative. To test the effects of one or more compounds disclosed herein, unfractionated splenocytes, or peripheral blood mononuclear cells are stimulated with anti-CD3 to initiate T-cell receptor signaling. The cells are then fixed and stained for surface markers and intracellular phosphoproteins.
Similarly, aliquots of whole blood are incubated for 15 minutes with vehicle (e.g., 0.1% DMSO) or kinase inhibitors at various concentrations, before addition of stimuli to crosslink the T cell receptor (TCR) (anti-CD3 with secondary antibody) or the B cell receptor (BCR) using anti-kappa light chain antibody (Fab′2 fragments). After approximately 5 and 15 minutes, samples are fixed (e.g., with cold 4% paraformaldehyde) and used for phosflow. […] The level of phosphrylation of kinase substrates such as Akt and S6 are then measured by incubating the fixed cells with labeled antibodies specific to the phosphorylated isoforms of these proteins. The population of cells is then analyzed by flow cytometry.

The target in a further series is PI3K α (Homo sapiens (Human), UniProt P42336). The series is described as follows: PI 3-Kinase (human) HTRF assay, p110α/p85α. In kind it is biochemical. For orientation: In TR-FRET formats the signal depends on donor and acceptor labels being close together.
The target in another series is PI3K γ (Homo sapiens (Human), UniProt P48736). The series is described as follows: PI 3-Kinase (human) HTRF assay, p110γ. In kind it is biochemical. As to conditions: read-out: PI3K γ IC50.
The next series concerns the target mTORC (Homo sapiens (Human), UniProt P42345). The series is described as follows: mTOR inhibition assay (radiometric or LanthaScreen TR-FRET). The format is biochemical.
The target of another series is PI3K β (Homo sapiens (Human), UniProt P42338). Kind of series: PI 3-Kinase (human) HTRF assay, p110β/p85α. In kind it is biochemical.
The next series has as its target PI3K δ (Homo sapiens (Human), UniProt O00329). Kind of series: PI 3-Kinase (human) HTRF assay, p110δ/p85α. In kind it is biochemical.
In another series the test system is T47D cells. Kind of series: T47D proliferation. The format is cell-based. As to conditions: Homo sapiens.

Here are results for ten compounds from patent publication US9682141B2, “Combination of kinase inhibitors and uses thereof” (INTELLIKINE LLC, priority 2011, dated 2017).

By IC50 is commonly meant the concentration at which inhibition is half-maximal.

PI3K γ, sequence (P48736 whole entry): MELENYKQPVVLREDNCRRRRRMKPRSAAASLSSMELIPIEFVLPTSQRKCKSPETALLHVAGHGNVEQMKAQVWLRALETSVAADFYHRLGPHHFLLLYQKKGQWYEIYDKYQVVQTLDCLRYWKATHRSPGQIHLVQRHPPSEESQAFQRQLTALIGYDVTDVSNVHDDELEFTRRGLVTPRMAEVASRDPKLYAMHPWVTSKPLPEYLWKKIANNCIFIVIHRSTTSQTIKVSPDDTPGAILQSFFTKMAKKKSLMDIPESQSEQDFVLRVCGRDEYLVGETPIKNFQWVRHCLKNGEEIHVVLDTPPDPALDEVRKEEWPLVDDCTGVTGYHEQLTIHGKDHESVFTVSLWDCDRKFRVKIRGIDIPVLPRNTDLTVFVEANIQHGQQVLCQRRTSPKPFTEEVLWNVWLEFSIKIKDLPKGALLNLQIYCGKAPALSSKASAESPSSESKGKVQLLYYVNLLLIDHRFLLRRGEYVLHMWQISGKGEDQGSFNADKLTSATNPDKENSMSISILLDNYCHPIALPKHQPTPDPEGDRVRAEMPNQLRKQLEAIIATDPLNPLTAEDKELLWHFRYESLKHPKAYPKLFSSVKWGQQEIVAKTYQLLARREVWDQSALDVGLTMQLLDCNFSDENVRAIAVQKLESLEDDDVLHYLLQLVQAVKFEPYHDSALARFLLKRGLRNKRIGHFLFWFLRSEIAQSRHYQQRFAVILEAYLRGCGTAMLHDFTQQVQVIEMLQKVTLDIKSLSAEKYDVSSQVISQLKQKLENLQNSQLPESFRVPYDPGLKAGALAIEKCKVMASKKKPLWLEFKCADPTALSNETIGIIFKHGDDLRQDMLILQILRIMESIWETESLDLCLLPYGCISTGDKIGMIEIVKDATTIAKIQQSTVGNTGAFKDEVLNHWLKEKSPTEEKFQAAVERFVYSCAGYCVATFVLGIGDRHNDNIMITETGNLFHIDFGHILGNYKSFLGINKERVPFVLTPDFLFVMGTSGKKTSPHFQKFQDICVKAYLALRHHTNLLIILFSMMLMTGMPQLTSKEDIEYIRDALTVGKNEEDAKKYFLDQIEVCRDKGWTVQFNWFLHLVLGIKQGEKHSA
PI3K α, sequence (P42336 whole entry): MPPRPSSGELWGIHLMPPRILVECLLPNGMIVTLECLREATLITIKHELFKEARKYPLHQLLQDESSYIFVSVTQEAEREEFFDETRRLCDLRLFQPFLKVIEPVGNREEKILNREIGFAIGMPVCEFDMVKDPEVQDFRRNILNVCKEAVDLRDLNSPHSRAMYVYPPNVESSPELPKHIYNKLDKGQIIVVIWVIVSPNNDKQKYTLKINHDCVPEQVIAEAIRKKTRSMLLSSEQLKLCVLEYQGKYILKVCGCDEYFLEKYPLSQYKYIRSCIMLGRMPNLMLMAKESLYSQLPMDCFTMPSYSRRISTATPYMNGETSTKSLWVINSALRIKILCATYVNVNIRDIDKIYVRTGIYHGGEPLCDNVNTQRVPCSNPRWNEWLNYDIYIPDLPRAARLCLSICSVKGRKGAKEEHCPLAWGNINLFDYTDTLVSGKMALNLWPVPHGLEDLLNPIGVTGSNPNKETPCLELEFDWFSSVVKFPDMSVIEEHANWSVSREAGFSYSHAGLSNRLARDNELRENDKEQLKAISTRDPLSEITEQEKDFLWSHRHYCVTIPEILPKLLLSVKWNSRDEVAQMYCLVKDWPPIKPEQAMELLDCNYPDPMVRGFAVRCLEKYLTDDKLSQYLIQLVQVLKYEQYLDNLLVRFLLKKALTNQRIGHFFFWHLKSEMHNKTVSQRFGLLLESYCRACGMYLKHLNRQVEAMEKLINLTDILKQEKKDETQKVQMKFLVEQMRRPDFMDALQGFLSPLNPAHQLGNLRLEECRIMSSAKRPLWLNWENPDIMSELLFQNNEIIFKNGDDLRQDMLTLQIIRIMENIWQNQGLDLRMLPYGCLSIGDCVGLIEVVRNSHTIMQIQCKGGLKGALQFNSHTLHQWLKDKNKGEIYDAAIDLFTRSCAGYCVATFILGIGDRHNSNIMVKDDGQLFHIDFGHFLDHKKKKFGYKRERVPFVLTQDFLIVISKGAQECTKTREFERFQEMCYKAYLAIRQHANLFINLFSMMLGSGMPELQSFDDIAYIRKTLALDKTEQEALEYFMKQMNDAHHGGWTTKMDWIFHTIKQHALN
PI3K α, sequence (P27986 whole entry partner): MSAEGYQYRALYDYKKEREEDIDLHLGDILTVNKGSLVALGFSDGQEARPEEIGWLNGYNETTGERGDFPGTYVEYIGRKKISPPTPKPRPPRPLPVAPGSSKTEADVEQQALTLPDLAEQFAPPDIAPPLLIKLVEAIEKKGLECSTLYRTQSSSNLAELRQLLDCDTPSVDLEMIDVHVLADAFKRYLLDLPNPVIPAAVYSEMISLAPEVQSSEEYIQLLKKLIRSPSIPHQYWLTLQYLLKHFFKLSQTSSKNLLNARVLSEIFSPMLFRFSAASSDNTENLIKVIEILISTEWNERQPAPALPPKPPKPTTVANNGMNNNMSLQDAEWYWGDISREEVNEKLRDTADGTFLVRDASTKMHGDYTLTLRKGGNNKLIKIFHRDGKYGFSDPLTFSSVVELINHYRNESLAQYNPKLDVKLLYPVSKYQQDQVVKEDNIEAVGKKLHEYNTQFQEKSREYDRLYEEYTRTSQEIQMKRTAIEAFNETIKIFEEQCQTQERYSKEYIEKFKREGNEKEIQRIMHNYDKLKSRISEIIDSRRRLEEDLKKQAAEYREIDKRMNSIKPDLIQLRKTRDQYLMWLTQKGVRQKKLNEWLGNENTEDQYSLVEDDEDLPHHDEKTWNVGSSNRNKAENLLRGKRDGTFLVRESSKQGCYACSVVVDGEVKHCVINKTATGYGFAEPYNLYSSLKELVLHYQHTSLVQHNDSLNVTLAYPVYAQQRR
PI3K δ, sequence (O00329 whole entry): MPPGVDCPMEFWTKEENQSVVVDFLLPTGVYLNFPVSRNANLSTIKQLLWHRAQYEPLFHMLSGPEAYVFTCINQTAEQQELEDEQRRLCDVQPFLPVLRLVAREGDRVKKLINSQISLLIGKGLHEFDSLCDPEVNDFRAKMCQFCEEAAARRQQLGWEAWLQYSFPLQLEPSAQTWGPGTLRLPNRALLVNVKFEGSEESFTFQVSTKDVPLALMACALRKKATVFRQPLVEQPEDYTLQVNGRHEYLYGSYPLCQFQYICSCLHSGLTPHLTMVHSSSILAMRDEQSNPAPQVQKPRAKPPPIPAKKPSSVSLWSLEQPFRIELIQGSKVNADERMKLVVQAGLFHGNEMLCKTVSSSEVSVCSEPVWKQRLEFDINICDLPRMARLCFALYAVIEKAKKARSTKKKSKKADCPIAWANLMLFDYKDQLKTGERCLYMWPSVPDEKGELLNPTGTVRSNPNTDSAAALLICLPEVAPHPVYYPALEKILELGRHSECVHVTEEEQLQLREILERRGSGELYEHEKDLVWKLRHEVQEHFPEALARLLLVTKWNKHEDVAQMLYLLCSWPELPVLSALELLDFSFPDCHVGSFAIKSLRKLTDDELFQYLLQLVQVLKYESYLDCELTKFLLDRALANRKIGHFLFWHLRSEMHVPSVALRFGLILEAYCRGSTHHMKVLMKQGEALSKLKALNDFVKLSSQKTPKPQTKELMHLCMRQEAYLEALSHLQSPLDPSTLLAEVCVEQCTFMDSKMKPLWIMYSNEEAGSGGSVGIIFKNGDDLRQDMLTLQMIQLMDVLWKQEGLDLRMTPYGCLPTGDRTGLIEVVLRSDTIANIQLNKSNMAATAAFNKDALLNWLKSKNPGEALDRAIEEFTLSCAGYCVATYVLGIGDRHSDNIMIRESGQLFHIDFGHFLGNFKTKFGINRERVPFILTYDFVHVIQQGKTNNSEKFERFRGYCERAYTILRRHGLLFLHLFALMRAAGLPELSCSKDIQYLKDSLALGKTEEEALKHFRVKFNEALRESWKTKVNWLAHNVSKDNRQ
PI3K δ, sequence (P27986 whole entry partner): as the sequence (P27986 whole entry partner) above
PI3K β, sequence (P42338 whole entry): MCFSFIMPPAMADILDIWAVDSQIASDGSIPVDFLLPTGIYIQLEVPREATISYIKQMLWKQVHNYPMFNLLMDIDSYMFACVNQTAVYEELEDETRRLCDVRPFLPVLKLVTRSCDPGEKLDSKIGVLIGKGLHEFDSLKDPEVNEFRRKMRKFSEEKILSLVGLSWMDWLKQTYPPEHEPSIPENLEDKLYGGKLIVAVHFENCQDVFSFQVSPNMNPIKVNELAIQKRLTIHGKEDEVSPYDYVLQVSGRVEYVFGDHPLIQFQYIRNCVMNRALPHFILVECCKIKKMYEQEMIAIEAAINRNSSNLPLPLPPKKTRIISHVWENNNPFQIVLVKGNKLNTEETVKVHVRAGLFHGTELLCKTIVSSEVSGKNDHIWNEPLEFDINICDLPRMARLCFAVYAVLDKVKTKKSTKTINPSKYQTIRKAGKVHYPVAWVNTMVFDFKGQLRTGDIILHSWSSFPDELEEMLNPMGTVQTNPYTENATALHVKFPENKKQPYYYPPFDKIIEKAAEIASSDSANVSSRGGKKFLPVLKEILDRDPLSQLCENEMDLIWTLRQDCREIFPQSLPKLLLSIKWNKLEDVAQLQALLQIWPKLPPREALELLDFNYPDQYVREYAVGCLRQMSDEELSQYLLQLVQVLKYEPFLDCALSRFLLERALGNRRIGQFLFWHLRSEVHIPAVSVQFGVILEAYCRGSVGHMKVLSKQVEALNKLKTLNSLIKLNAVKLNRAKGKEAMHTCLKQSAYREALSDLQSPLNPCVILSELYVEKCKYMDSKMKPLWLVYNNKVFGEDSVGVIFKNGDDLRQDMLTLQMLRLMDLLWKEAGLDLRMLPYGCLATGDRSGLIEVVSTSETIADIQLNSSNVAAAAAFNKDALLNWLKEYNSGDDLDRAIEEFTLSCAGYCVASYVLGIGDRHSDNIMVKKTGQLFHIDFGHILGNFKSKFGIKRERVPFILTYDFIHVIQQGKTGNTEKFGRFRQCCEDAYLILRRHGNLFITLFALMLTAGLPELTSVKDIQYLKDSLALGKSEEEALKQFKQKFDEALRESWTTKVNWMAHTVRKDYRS
PI3K β, sequence (P27986 whole entry partner): as the sequence (P27986 whole entry partner) above
Procedure for PI3K β: (§1) An exemplary system is PI 3-Kinase (human) HTRF™ Assay from Upstate. […] Briefly, the assay is a time resolved FRET assay that indirectly measures PIP3 product formed by the activity of a PI3-K. The kinase reaction is performed in a microtitre plate (e.g., a 384 well microtitre plate). The total reaction volume is approximately 20 ul per well. In the first step, each well receives 2 ul of test compound in 20% dimethylsulphoxide resulting in a 2% DMSO final concentration. Next, approximately 14.5 ul of a kinase/PIP2 mixture (diluted in 1× reaction buffer) is added per well for a final concentration of 0.25-0.3 ug/ml kinase and 10 μM PIP2. The plate is sealed and incubated for 15 minutes at room temperature. To start the reaction, 3.5 ul of ATP (diluted in 1× reaction buffer) is added per well for a final concentration of 10 μM ATP. The plate is sealed and incubated for 1 hour at room temperature. The reaction is stopped by adding 5 ul of Stop Solution per well and then 5 ul of Detection Mix is added per well. The plate is sealed, incubated for 1 hour at room temperature, and then read on an appropriate plate reader. Data is analyzed and IC50s are generated using GraphPad Prism 5. For PI3K α, β, δ, and γ, the nM concentration of inhibitor to reach IC50 is provided.
Procedure for PI3K δ: as §1
Procedure for mTORC: The compounds described herein can be tested against recombinant mTOR (Invitrogen) in an assay containing 50 mM HEPES, pH 7.5, 1 mM EGTA, 10 mM MgCl2, 2.5 mM, 0.01% Tween, 10 μM ATP (2.5 μCi of μ-32P-ATP), and 3 μg/mL BSA. Rat recombinant PHAS-1/4EBP1 (Calbiochem; 2 mg/mL) is used as a substrate. Reactions are terminated by spotting onto nitrocellulose, which is washed with 1M NaCl/1% phosphoric acid (approximately 6 times, 5-10 minutes each). Sheets are dried and the transferred radioactivity quantitated by phosphorimaging.
For instance, one can use Invitrogen's LanthaScreen™ Kinase assay to test the inhibitors of mTOR disclosed herein. This assay is a time resolved FRET platform that measures the phosphorylation of GFP labeled 4EBP1 by mTOR kinase. The kinase reaction is performed in a white 384 well microtitre plate. The total reaction volume is 20 ul per well and the reaction buffer composition is 50 mM HEPES pH7.5, 0.01% Polysorbate 20, 1 mM EGTA, 10 mM MnCl2, and 2 mM DTT. In the first step, each well receives 2 ul of test compound in 20% dimethylsulphoxide resulting in a 2% DMSO final concentration. Next, 8 ul of mTOR diluted in reaction buffer is added per well for a 60 ng/ml final concentration. To start the reaction, 10 ul of an ATP/GFP-4EBP1 mixture (diluted in reaction buffer) is added per well for a final concentration of 10 μM ATP and 0.5 μM GFP-4EBP1. The plate is sealed and incubated for 1 hour at room temperature. […] The plate is sealed, incubated for 1 hour at room temperature, and then read on a plate reader set up for LanthaScreen™ TR-FRET. Data is analyzed and IC50s are generated using GraphPad Prism 5.
Source text for marginal zone B cells: Spleens were harvested 2 hrs after the last dose, processed and stained with appropriate antibodies (marginal zone B cell: B220+;CD23−;CD21hi) and analyzed for staining on GUAVA EasyCyte FACS machine using Guava Cytosoft 5.2 software.

`CCCOc1cc(N)ccc1C(=O)OCCN(CC)CC` [propoxycaine]: in series [1], the plasma stability entry is recorded as “low plasma stability”.

Turning to `CS(=O)(=O)N1CCN(Cc2cc3nc(-c4cccc5[nH]ncc45)nc(N4CCOCC4)c3s2)CC1` [Pan-PI3K inhibitor, GDC0941], in [2], the “B cell function in vivo (antibody production, % of vehicle control)” value was “blocks B cell function in vivo”. For the same compound, the “reduction in tumor weight” value in the series on MDA-MB-361 tumors was “reduction in tumor weight”. In addition, in the series with marginal zone B cells, the “presence of MZB cells in mouse spleen” value is listed as “reduced presence of MZB cells”.

As for `O=C(O)CCCc1ccc(N(CCCl)CCCl)cc1` [chlorambucil, 4-[bis(2-chloroethyl)amino]benzenebutanoic acid], the chemical stability entry in series [3] is on record as “largely hydrolyzed over the course of 24 hours”.

Take `CO[C@H]1C[C@@H]2CC[C@@H](C)[C@@](O)(O2)C(=O)C(=O)N2CCCC[C@H]2C(=O)O[C@H]([C@H](C)C[C@@H]2CC[C@@H](O)[C@H](OC)C2)CC(=O)[C@H](C)/C=C(\C)[C@@H](O)[C@@H](OC)C(=O)[C@H](C)C[C@H](C)/C=C/C=C/C=C/1C` [rapamycin]: in series [4], the Akt phosphorylation result is reported as “enhances Akt phosphorylation” and the S6 phosphorylation result was “inhibits S6 phosphorylation”.

Regarding `CC(C)[N+](C)(CCOC(=O)C1c2ccccc2Oc2ccccc21)C(C)C` [propantheline], in series [1], the plasma stability entry is “intermediate plasma stability”.

Regarding `Nc1nc2cc(-c3ccc4ncc(N5C6CCC5COC6)nc4n3)ccc2o1`, the IC50 against PI3K α was < 0.1 µM; at PI3K γ, < 0.1 µM; against mTORC, > 10 µM; against PI3K β, > 10 µM; against PI3K δ, > 10 µM.

Take `Nc1nc2cc(-c3ccc4ncc(N5CC(N6CCOCC6)C5)nc4n3)ccc2o1`: the IC50 on PI3K α was < 0.1 µM; on PI3K γ it was < 10 µM; against mTORC it was < 10 µM; on PI3K β, > 10 µM; at PI3K δ it was < 10 µM.

Take `CC(C)N1CCN(c2cnc3ccc(-c4ccc5oc(N)nc5c4)nc3c2)CC1`: the IC50 against PI3K α is < 0.1 µM; on PI3K γ, < 1 µM; against mTORC, > 10 µM; at PI3K β, < 1 µM; against PI3K δ it was < 1 µM.

Take `C[C@H]1CN(C2CN(c3cnc4ccc(-c5ccc6oc(N)nc6c5)nc4n3)C2)CCN1`: the IC50 on PI3K α is < 0.1 µM; at PI3K γ, < 10 µM; against mTORC, < 10 µM; against PI3K β it was > 10 µM; against PI3K δ it was < 10 µM.

As to `Nc1nc2cc(-c3ccc4ncc(C(=O)NC5CC5)n4c3)ccc2o1`, the IC50 is < 0.1 µM on PI3K α; < 0.1 µM at PI3K γ; < 10 µM at PI3K β; < 1 µM on PI3K δ; < 10 µM in the series with T47D cells.
